In PubChem BioAssay AID179 (DTP/NCI, 2004):
“And” between values parts separate entries of the source, which are not always exact repeats. Equal values may be shown once. The source made the active and inactive calls.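 Rule for the calls: active = compounds giving half or more protection of infected cells from virus-caused growth loss, again on retest; inactive = the rest.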

Tested on: CEM cells HIV-1 protection, formazan growth assay
Assay: NCI AIDS Antiviral Assay
Conditions: for IC50: measured here: growth of uninfected CEM cells
Procedure, shortened: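 Human CEM cells, uninfected and HIV-1-infected, exposed to five drug concentrations; growth measured by soluble formazan assay and scored as percent protection from infection, with protecting compounds retested.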

Row | Compound | EC50 [µM] | IC50 | outcome
1 | O=[N+]([O-])c1ccc(Oc2ccc(S(=O)(=O)c3ccc(Oc4ccc([N+](=O)[O-])cc4)c([N+](=O)[O-])c3)cc2[N+](=O)[O-])cc1 | > 200 | > 200 µM | 
2 | Cc1cc(NC(=O)C(=O)Cc2nc3ccccc3s2)ccc1Cl | > 20.9 | > 20.9 µM | 
3 | CCOC(=O)NC(NC(=O)OCC)C(NC(=O)OCC)NC(=O)OCC | > 200 | > 200 µM | 
4 | C=C(c1cccn1S(=O)(=O)c1ccccc1)c1cccn1S(=O)(=O)c1ccccc1 | > 100 | 25.7 µM | 
5 | NC(CCSCCSCCC(N)C(=O)O)C(=O)O (stereo unspecified) | > 3.39 | > 3.39 µM | 
6 | COCC[N+](CCNC(=O)c1cccc2c(N)c3cccc(C)c3nc12)(CCOC)Cc1ccc([N+](=O)[O-])cc1 | > 200 | 13.2 µM | 
7 | NCC[PH+](c1ccccc1)c1ccccc1.NCC[PH+](c1ccccc1)c1ccccc1.[Cl-].[Pt+4] | > 200 | 72.4 µM | 
8 | Nc1nc(Cl)c(N)c(NCC2(CO)CCC(OCc3ccccc3)C2)n1 (stereo unspecified) | > 200 | 26.9 µM | 
9 | O=C1C=CC(=C(c2ccc(O)cc2)c2c(Br)c(Br)c(Br)c(Br)c2S(=O)(=O)O)C=C1 |  |  | inactive
10 | O=C(NCC(C(=O)OCc1ccccc1)C(=O)OCc1ccccc1)OCc1ccccc1 | > 200 | 63.1 µM | 
11 | O=C(NCCc1ccccc1)c1cc2ccc(O)c(O)c2cn1 | > 145 | 4.37 µM and 2.04 µM | 
12 | COc1ccc2nc3cc(Cl)ccc3c(NCCC(=O)OCC(O)C(O)C(O[C@H](C)C(=O)NC(C)C(=O)NC(CCC(N)=O)C(=O)OCc3ccccc3)C(C=O)NC(C)=O)c2c1 (stereo partly specified) | 0.955 | 4.68 µM | 
13 | O=C(OOC(=O)c1ccccc1)c1ccccc1 | > 200 | > 200 µM | 
14 | CC1CC/C(=C\c2ccc(F)cc2)C2=C1C(c1ccc(F)cc1)NC(=S)N2 (stereo unspecified) | > 200 | 16.6 µM | 
15 | Oc1ccc2c(c1)OCC(O)(c1ccccc1O)C2 (stereo unspecified) |  |  | inactive
16 | CCOC(=O)COc1ccc(OCC(=O)OCC)c2c1C(=O)CCCC2=O |  |  | inactive
17 | COc1cc(C(CN)N(C)C)cc(OC)c1OC (stereo unspecified) | > 200 | > 200 µM | 
18 | CC(=O)/C(=C\c1ccccc1O)C(=O)Nc1ccccc1C | > 33.9 | 22.4 µM | 
19 | OC1COc2ccc(Cl)cc2CSC1 (stereo unspecified) | > 200 | 166 µM | 
20 | NC(CC(C(=O)O)c1ccccc1)C(=O)O (stereo unspecified) | > 200 | 112 µM | 
21 | Brc1cccc(C2SCc3nc4ccccc4n32)c1 (stereo unspecified) |  |  | inactive

Row | Compound | EC50 [µM] | IC50 | outcome
22 | CC(=O)Oc1c2c(c(O)c3ccccc13)C(n1cnc3c(ncn3C3OC(CO)C4OC(C)(C)OC43)c1=N)CCC2 (stereo unspecified) | > 45.7 | 12.9 µM | 
23 | CCNc1ccc2c(c1)C(=O)N(OS(C)(=O)=O)C2=O |  |  | inactive
24 | O=C(/C=C/c1ccc(O)c(O)c1)Oc1ccccc1 | > 200 | 9.33 µM | 
25 | Cc1cccc(C)c1NC(=O)/C(CC(=O)CC(c1ccccc1)c1c(O)c2ccccc2oc1=O)=N/O (stereo unspecified) | > 263 | 204 µM | 
26 | O=[As](O)(O)c1ccc(F)cc1 | > 200 | > 200 µM | 
27 | Cc1ccc(S(=O)(=O)N/N=C2/CCC3(O)CC2(C)CCC2[C@H]3CC2(C)C)cc1 (stereo partly specified) | > 200 | 33.9 µM | 
28 | CS(=O)(=O)OCCN1CCN(C(=O)c2ccc(Cl)c3c(Nc4ccc(S(=O)(=O)N=C(N)N)cc4)c4ccccc4nc23)CC1 | > 33.9 | > 33.9 µM | 
29 | Cn1c(=O)[nH]c2nccnc2c1=O | > 200 | > 200 µM | 
30 | O=C1/C=C/C(=O)OCCCC(=O)/C=C/C(=O)OCCC1 |  |  | inactive
31 | COc1ccc(-c2sc(/N=C/c3cc(Br)cc(Br)c3O)c(C#N)c2C)cc1OC |  |  | inactive
32 | O=C(c1ccccc1)N1CCCCC(Cl)C1=O (stereo unspecified) | > 1000 | > 1000 µM | 
33 | COC(=O)[C@@H](NC(=O)N(CCC#N)CCCN(C(=O)N[C@H](Cc1ccccc1)C(=O)OC)c1ccccc1)C(C)C | > 200 | 87.1 µM | 
34 | CC(C)(C)OC(=O)C1C(=O)C(C(=O)OC(C)(C)C)C23CCCCCCCCCCC12C(C(=O)OC(C)(C)C)C(=O)C3C(=O)OC(C)(C)C (stereo unspecified) | > 18.6 | > 18.6 µM | 
35 | COc1ccc2c(c1OC)C[N+]1(C)CCc3cc4c(cc3C1C2)OCO4 (stereo unspecified) | > 158 | > 158 µM | 
36 | NC(=S)SC1=NNC2(C(=O)N1)c1ccccc1-c1ccccc12 | > 200 | 20.9 µM | 
37 | CCSc1nc2sc(C)c(C)c2c(=O)n1-c1ccc(C(=O)O)cc1 | > 200 | > 200 µM | 
38 | CCCCCCCCCCOCCC(=O)OCC1OC(n2cc(C)c(=O)[nH]c2=O)CC1N=[N+]=[N-] (stereo unspecified) |  | 33.9 µM | active
39 | COc1ccc2c(c1)OC[C@@H]1c3cc(NC(=O)c4ccccc4)c(OCc4ccccc4)cc3N(S(=O)(=O)c3ccccc3)[C@H]21 | > 200 | > 200 µM | 
40 | CCc1cccc(C(C)CC)c1NC(=O)CC1C(=O)Nc2ccccc2S1=O (stereo unspecified) | > 46.8 | > 46.8 µM | 
41 | CC(C)c1ccc(/C(O)=C/C(=O)C(=O)/C=C(/O)c2ccc(C(C)C)cc2)cc1 |  |  | inactive
42 | CCCn1ccc(=O)c(O)c1C | > 200 | 35.5 µM | 
